Measurements reported in US9527828B2, “Method for expanding hematopoietic stem cells using heterocyclic compound” (Nissan Chemical Industries, Ltd., priority 2007, dated 2016).

System: CD34^+CD38^− cells
Experiment: Expansion of CD34+CD38− cells from human cord blood-derived CD34+ cells (Example 2)
Format: cell-based
Conditions: Homo sapiens, 168 h, 1 μg/mL compound, 50 ng/mL SCF, StemSpan SFEM, 7 days; based on number of CD34+CD38− cells in the absence of compound; read-out: Expansion efficiency
Description: The human cord blood-derived CD34^+ cells collected or purchased in Example 1 were plated on a 24-well plate (TPP) (10000 cells/1/mL/well). As the culture medium, StemSpan SFEM (Stemcell Technologies) containing 50 ng/mL SCF (Peprotech) was used, and Compounds No. 1 to 133 dissolved in dimethyl sulfoxide were added in an amount of 0.1% (v/v) to a final concentration of 1 μg/mL.
After the cells were incubated in liquid culture at 37° C. for 7 days in a CO2 incubator (5% CO2), the number of viable cells was counted by trypan blue assay. The number of CD34^+CD38^− cells was calculated as follows. After the incubation, the cells in the liquid culture was stained with a CD34 antibody (APC, Becton, Dickinson and Company) and a CD38 antibody (PE, Becton, Dickinson and Company), then washed with PBS(−) containing 2% (v/v) FBS and stained with propidium iodide (Sigma-Aldrich Japan) added to a final concentration of 5 μg/mL. The stained cells were analyzed with a flow cytometer JSAN (Bay Bioscience) to determined the proportion of CD34^+CD38^− cells, which was multiplied by the number of viable cells to calculate the number of CD34^+CD38^− cells.
The expansion efficiencies in the presence of 1 μg/mL of compounds based on the number of CD34^+CD38^− cells in the absence of them are shown in Tables 2 and 3 on a scale of A for expansion efficiencies of 10 or greater, B for expansion efficiencies of at least 5 and less than 10, and C for expansion efficiencies of at least 3 and less than 5.

Row | SMILES | fold induction at 1 µg/mL
1 | C/C(=N\NC(=O)c1ccc(C(=O)NCc2cc[n+]([O-])cc2)s1)c1csc(-c2ccc(Cl)c(Cl)c2)c1O [compound 3] | ≥ 10
2 | C/C(=N\NC(=O)c1ccc(C(=O)NCc2ccncc2)s1)c1csc(-c2ccc(Cl)c(Cl)c2)c1O [compound 5] | ≥ 10
3 | COc1cc(CNC(=O)c2ccc(C(=O)N/N=C(\C)c3csc(-c4ccc(Cl)c(Cl)c4)c3O)s2)on1 [compound 7] | ≥ 10
4 | C/C(=N\NC(=O)c1ccc(C(=O)NCc2cnccn2)s1)c1csc(-c2ccc(Cl)c(Cl)c2)c1O [compound 8] | ≥ 10
5 | C/C(=N\NC(=O)c1ccc(C(=O)NCCO)s1)c1csc(-c2ccc(Cl)cc2)c1O [compound 10] | ≥ 10
6 | CNC(=O)c1ccc(C(=O)N/N=C(\C)c2csc(-c3ccc(Cl)cc3)c2O)s1 [compound 11] | ≥ 10
7 | C/C(=N\NC(=O)c1ccc(C(=O)NCc2cccs2)s1)c1csc(-c2ccc(Cl)cc2)c1 [compound 12] | ≥ 10
8 | C/C(=N\NC(=O)c1ccc(C(=O)NCc2cc(C)on2)s1)c1csc(-c2ccc(OC(F)(F)F)cc2)c1O [compound 13] | ≥ 10
9 | C/C(=N\NC(=O)c1ccc(C(=O)NCc2cnc(C)cn2)s1)c1csc(-c2ccc(OC(F)(F)F)cc2)c1O [compound 14] | ≥ 10
10 | COc1cc(CNC(=O)c2ccc(C(=O)N/N=C(\C)c3csc(-c4ccc(OC(F)(F)F)cc4)c3O)s2)on1 [compound 15] | ≥ 10
11 | C/C(=N\NC(=O)c1ccc(C(=O)NCc2ccccc2)s1)c1csc(-c2ccc(Cl)c(Cl)c2)c1O [compound 16] | ≥ 10
12 | COc1cc(CNC(=O)c2ccc(C(=O)N/N=C(\C)c3csc(-c4ccc(Cl)cc4)c3O)s2)on1 [compound 17] | ≥ 10
13 | C/C(=N\NC(=O)c1ccc(C(=O)NCc2cc[n+]([O-])cc2)s1)c1csc(-c2ccc(Cl)cc2)c1O [compound 18] | ≥ 10
14 | C/C(=N\NC(=O)c1ccc(C(=O)NCc2cc(C)n(C)n2)s1)c1csc(-c2ccc(Cl)cc2)c1O [compound 19] | ≥ 10
15 | C/C(=N\NC(=O)c1ccc(C(=O)NC2CC2)s1)c1csc(-c2ccc(Cl)c(Cl)c2)c1 [compound 21] | ≥ 10
16 | COCCNC(=O)c1ccc(C(=O)N/N=C(\C)c2csc(-c3ccc(Cl)c(Cl)c3)c2O)s1 [compound 22] | 5 to 10
17 | C/C(=N\NC(=O)c1ccc(C(=O)NCCN2CCOCC2)s1)c1csc(-c2ccc(Cl)c(Cl)c2)c1O [compound 23] | 5 to 10
18 | CCNC(=O)c1ccc(C(=O)N/N=C(\C)c2csc(-c3ccc(Cl)c(Cl)c3)c2O)s1 [compound 24] | 5 to 10
19 | C/C(=N\NC(=O)c1ccc(C(=O)NCc2cccs2)s1)c1csc(-c2ccc(Cl)c(Cl)c2)c1O [compound 25] | 5 to 10
20 | C/C(=N\NC(=O)c1ccc(C(=O)N(C)Cc2ccccc2)s1)c1csc(-c2ccc(Cl)c(Cl)c2)c1O [compound 26] | ≥ 10
21 | CCCCCN(C)C(=O)c1ccc(C(=O)N/N=C(\C)c2csc(-c3ccc(Cl)c(Cl)c3)c2O)s1 [compound 27] | 5 to 10
22 | C/C(=N\NC(=O)c1ccc(C(=O)N(C(C)C)C(C)C)s1)c1csc(-c2ccc(Cl)c(Cl)c2)c1O [compound 28] | ≥ 10
23 | C/C(=N\NC(=O)c1ccc(C(=O)NCCN2CCOCC2)s1)c1csc(-c2ccc(OC(F)(F)F)cc2)c1O [compound 29] | ≥ 10
24 | C/C(=N\NC(=O)c1ccc(C(=O)NCc2cccs2)s1)c1csc(-c2cccc(Cl)c2)c1O [compound 30] | 5 to 10
25 | CCCNC(=O)c1ccc(C(=O)N/N=C(\C)c2csc(-c3ccc(Cl)cc3)c2O)s1 [compound 31] | ≥ 10
26 | C/C(=N\NC(=O)c1ccc(C(=O)NCc2ccccn2)s1)c1csc(-c2ccc(Cl)cc2)c1O [compound 32] | 5 to 10
27 | C/C(=N\NC(=O)c1ccc(C(=O)NCCCN2CCOCC2)s1)c1csc(-c2ccc(Br)cc2)c1O [compound 33] | 5 to 10
